Assay results as given in patent US7897602B2, “Indolinone compounds as kinase inhibitors” (Development Center for Biotechnology, priority 2009, dated 2011).

Legend:
Assay type in all cases: biochemical
Aurora B kinase = biological target: T1, Aurora B kinase (Homo sapiens, UniProt Q96GD4); experiment: Aurora B kinase assay ([γ-33P]ATP, CHOCKtide substrate)
T1 construct: purchased Cell signaling
How it was run: (§1)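 Recombinant Aurora A (1 ng) or Aurora B (2.5 ng) incubated with test compound, CHOCKtide (1 μg) and [γ-33P]ATP/ATP at 10 μM (Aurora A) or 40 μM (Aurora B), 30 min at 33 °C. Stopped with phosphoric acid; filter-bound 33P counted; IC50 = half-maximal inhibition.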

Aurora A kinase = biological target: T2, Aurora A kinase (Homo sapiens, UniProt O14965); experiment: Aurora A kinase assay ([γ-33P]ATP, CHOCKtide substrate)
T2 construct: purchased Upstate
T2 sequence (O14965 1-403): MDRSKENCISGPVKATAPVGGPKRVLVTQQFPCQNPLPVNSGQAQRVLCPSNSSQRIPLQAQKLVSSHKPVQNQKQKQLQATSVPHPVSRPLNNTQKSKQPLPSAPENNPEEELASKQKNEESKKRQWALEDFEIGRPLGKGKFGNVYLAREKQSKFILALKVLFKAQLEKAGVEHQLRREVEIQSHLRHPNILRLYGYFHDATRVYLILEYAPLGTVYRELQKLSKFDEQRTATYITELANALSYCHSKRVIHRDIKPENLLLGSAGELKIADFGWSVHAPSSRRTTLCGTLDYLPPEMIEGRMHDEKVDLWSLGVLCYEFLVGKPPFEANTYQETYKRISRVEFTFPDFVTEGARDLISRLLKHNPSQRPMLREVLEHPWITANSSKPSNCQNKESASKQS
How it was run: as §1

VEGFR2 kinase = biological target: T3, VEGFR2 kinase (Homo sapiens, UniProt P35968); experiment: VEGFR2 kinase assay (33P incorporation into Poly(Glu-Tyr)); settings: 500 nM test compound; read-out: Inhibition at 500 nM (%) VEGFr-2
T3 construct: recombinant N-terminal 6×His-tagged VEGFR2 kinase domain construct expressed by baculovirus; 6xHis (N); made in house
Procedure: Inhibition of VEGFR2 kinase activity by compounds disclosed herein was quantified by measuring the amount of [^33P] incorporated into the substrate in the presence of a test compound. Specifically, a reaction mixture with a final volume of 25 μL and containing 6.25 ng of VEGFR2 kinase (obtained by purifying recombinant N-terminal 6×His-tagged VEGFR2 kinase domain construct expressed by baculovirus), 5 μg of substrate (Poly (Glu-Tyr, 4:1, Sigma)), kinase reaction buffer (20 mM MOPS pH 7.0, 1 mM EDTA, 5% glycerol, 0.01% Brij-35, 0.1% β-mercaptoethanol, 1 mg/mL BSA, 100 μM ATP, 0.1 μCi per well [^33P]-γ-ATP (2,500-3,000 Ci/mmol), and 500 nM test compound (final concentration of DMSO was 4%) or 4% DMSO alone (as the control sample), was incubated at 30° C. for 30 minutes. The reaction was then stopped by adding 5 μL of 3% phosphoric acid solution. The resultant solution was transferred to and harvested by a filter plate (UniFilter-96 GF/B, PerkinElmer). The filter plate was then washed 20 times with d.d. H2O for 5 min followed by the addition of 30 μL of MicroScint™-20 Cocktail (PerkinElmer). After the plate was sealed, the retained radioactivity on the filter was counted using a TopCount scintillation detector (PerkinElmer). The percentage of inhibition rate of the test compound was calculated by dividing the retained radioactivity of the test sample with the retained radioactivity of the control sample and shown in Table 3.

Flt3 kinase = biological target: T4, Flt3 kinase (Homo sapiens, UniProt P36888); experiment: Flt3 kinase assay (33P incorporation into Poly(Glu-Tyr)); settings: 100 nM test compound; read-out: Inhibition at 100 nM (%) Flt-3
T4 construct: recombinant N-terminal 6×His-tagged Flt3 kinase domain construct expressed from baculovirus; 6xHis (N); made in house
T4 sequence (P36888 610-943 limits assumed): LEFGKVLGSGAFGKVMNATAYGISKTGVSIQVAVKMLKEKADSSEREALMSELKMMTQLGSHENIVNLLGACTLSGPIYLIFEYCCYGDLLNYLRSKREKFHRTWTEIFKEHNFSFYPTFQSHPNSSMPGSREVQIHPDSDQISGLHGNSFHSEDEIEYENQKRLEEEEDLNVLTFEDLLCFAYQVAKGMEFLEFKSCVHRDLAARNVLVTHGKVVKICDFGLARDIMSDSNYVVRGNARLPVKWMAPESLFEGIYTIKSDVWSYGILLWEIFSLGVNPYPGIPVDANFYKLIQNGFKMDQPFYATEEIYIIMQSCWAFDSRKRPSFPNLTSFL
Procedure: Inhibition of Flt3 kinase activity by compounds disclosed herein was quantified by measuring the amount of [^33P] incorporated into the substrate in the presence of a test compound. Briefly, a reaction mixture of 25 μL final volume containing 5 ng of Flt3 kinase (obtained by purifying recombinant N-terminal 6×His-tagged Flt3 kinase domain construct expressed from baculovirus), 5 μg of the substrate (Poly (Glu-Tyr, 4:1, Sigma)), kinase reaction buffer (20 mM MOPS pH 7.0, 1 mM EDTA, 5% glycerol, 0.01% Brij-35, 0.1% β-mercaptoethanol, 1 mg/mL BSA, 100 μM ATP, 0.1 μCi per well [^33P]-γ-ATP (2,500-3,000 Ci/mmol)), and a test compound (100 nM, diluted with 4% DMSO) or DMSO (as the control) was incubated at 30° C. for 30 minutes. The reaction was stopped by adding 5 μL of 3% phosphoric acid solution. The resultant reaction solution was then harvested onto a filter plate (UniFilter-96 GF/B, PerkinElmer), washed 20 times for 5 min with d.d. H2O, and followed by the addition of 30 μL of MicroScint™-20 Cocktail (PerkinElmer). The plate was then sealed and counted using a TopCount scintillation detector (PerkinElmer). The percentage of inhibition rate of the test compound was calculated by dividing the retained radioactivity of the test sample with the retained radioactivity of the control sample and shown in Table 3.

T1 sequence (Q96GD4 whole entry): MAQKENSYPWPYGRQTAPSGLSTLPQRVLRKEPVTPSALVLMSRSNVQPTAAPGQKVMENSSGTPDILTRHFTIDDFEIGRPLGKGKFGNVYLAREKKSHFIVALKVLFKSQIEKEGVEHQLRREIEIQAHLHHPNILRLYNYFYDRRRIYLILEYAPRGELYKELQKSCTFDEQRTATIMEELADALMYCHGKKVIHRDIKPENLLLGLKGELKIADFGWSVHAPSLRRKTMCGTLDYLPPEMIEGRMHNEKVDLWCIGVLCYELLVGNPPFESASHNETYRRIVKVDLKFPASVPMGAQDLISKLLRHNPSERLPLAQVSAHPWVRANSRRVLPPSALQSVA
T3 sequence (P35968 834-1162 limits assumed): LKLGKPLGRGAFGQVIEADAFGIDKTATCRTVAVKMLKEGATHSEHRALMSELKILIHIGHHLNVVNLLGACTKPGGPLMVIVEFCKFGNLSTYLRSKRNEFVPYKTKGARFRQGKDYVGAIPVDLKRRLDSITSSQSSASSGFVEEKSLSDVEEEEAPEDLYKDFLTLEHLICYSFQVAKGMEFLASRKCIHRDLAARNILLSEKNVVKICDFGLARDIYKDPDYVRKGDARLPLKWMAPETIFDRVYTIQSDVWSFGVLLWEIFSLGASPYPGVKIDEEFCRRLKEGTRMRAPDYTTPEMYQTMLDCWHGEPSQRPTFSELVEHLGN

IC50 (Aurora B kinase) [nM]	inhibition at 1 µM (Aurora B kinase; 1.0 μM test compound) [%]	IC50 (Aurora A kinase) [nM]	inhibition at 1 µM (Aurora A kinase; 1.0 μM test compound) [%]	inhibition at 0.5 µM (VEGFR2 kinase) [%]	inhibition at 0.1 µM (Flt3 kinase) [%]	Aurora B kinase assay Inhibition at 1.0 μM (%) (Aurora B kinase; 1.0 μM test compound, 1 µM)	Aurora A kinase assay Inhibition at 1.0 μM (%) (Aurora A kinase; 1.0 μM test compound, 1 µM)	SMILES
–	13	209	74.8	85	72.1	–	–	O=C(O)CCc1c(/C=C2\C(=O)Nc3ccccc32)[nH]c2c1C(=O)CCC2 [DCB-70052, (Z)-3-((3-carboxyethyl-4-oxo-4,5,6,7-tetrahydro-1H-indol-2-yl)methylene)indolin-2-one]
–	–	1980	–	85.2	97.3	3.5	38.2	CCOC(=O)CCc1c(/C=C2\C(=O)Nc3ccc(F)cc32)[nH]c2c1C(=O)CCC2 [DCB-70053, (Z)-5-fluoro-3-((3-(3-ethoxy-3-oxopropyl)-4-oxo-4,5,6,7-tetrahydro-1H-indol-2-yl)methylene)indolin-2-one]
–	11.6	178	79.8	91.2	86.5	–	–	O=C(O)CCc1c(/C=C2\C(=O)Nc3ccc(F)cc32)[nH]c2c1C(=O)CCC2 [DCB-70055, (Z)-5-fluoro-3-((3-carboxyethyl-4-oxo-4,5,6,7-tetrahydro-1H-indol-2-yl)methylene)indolin-2-one]
–	7.2	–	55	89.6	99.2	–	–	CCOC(=O)CCc1c(/C=C2\C(=O)Nc3ccc(Br)cc32)[nH]c2c1C(=O)CCC2 [DCB-70056, (Z)-5-bromo-3-((3-(3-ethoxy-3-oxopropyl)-4-oxo-4,5,6,7-tetrahydro-1H-indol-2-yl)methylene)indolin-2-one]
–	6.8	211	89.5	94.9	92.8	–	–	O=C(O)CCc1c(/C=C2\C(=O)Nc3ccc(Br)cc32)[nH]c2c1C(=O)CCC2 [DCB-70057, (Z)-5-bromo-3-((3-carboxyethyl-4-oxo-4,5,6,7-tetrahydro-1H-indol-2-yl)methylene)indolin-2-one]
–	12.4	357	76.1	70.9	21.5	–	–	COc1cc(-c2ccc3c(c2)/C(=C/c2[nH]c4c(c2CCC(=O)O)C(=O)CCC4)C(=O)N3)ccc1O [DCB-70059, (Z)-5-(4-hydroxyl-3-methoxyphenyl)-3-((3-carboxyethyl-4-oxo-4,5,6,7-tetrahydro-1H-indol-2-yl)methylene)indolin-2-one]
–	-4.1	–	-7.2	60.2	91.6	–	–	CCOC(=O)CCc1c(/C=C2\C(=O)Nc3ccc([N+](=O)[O-])cc32)[nH]c2c1C(=O)CCC2 [DCB-70062, (Z)-5-nitro-3-((3-(3-ethoxy-3-oxopropyl)-4-oxo-4,5,6,7-tetrahydro-1H-indol-2-yl)methylene)indolin-2-one]
–	3.4	724	56.6	82.7	74.7	–	–	O=C(O)CCc1c(/C=C2\C(=O)Nc3ccc([N+](=O)[O-])cc32)[nH]c2c1C(=O)CCC2 [DCB-70063, (Z)-5-nitro-3-((3-carboxyethyl-4-oxo-4,5,6,7-tetrahydro-1H-indol-2-yl)methylene)indolin-2-one]
–	25.6	30.8	97.3	47.9	-6.8	–	–	CNS(=O)(=O)c1ccc2c(c1)/C(=C/c1[nH]c3c(c1CCC(=O)O)C(=O)CCC3)C(=O)N2 [DCB-70065, (Z)-5-(N-methylsulfamoyl)-3-((3-carboxyethyl-4-oxo-4,5,6,7-tetrahydro-1H-indol-2-yl)methylene)indolin-2-one]

The next lines start with the compound.

SMILES	IC50 (Aurora B kinase) [nM]	inhibition at 1 µM (Aurora B kinase; 1.0 μM test compound) [%]	IC50 (Aurora A kinase) [nM]	inhibition at 1 µM (Aurora A kinase; 1.0 μM test compound) [%]	inhibition at 0.5 µM (VEGFR2 kinase) [%]	inhibition at 0.1 µM (Flt3 kinase) [%]	Aurora B kinase assay Inhibition at 1.0 μM (%) (Aurora B kinase; 1.0 μM test compound, 1 µM)	Aurora A kinase assay Inhibition at 1.0 μM (%) (Aurora A kinase; 1.0 μM test compound, 1 µM)
CCOC(=O)CCc1c(/C=C2\C(=O)Nc3ccccc32)[nH]c2c1C(=O)CCC2 [DCB-70049, (Z)-3-((3-(3-ethoxy-3-oxopropyl)-4-oxo-4,5,6,7-tetrahydro-1H-indol-2-yl)methylene)indolin-2-one]	5920	2.3	1780	32.6	79.7	90.2	–	–
CCOC(=O)CCc1c(/C=C2\C(=O)Nc3ccc(-c4ccc(O)c(OC)c4)cc32)[nH]c2c1C(=O)CCC2 [DCB-70058, (Z)-5-(4-hydroxyl-3-methoxyphenyl)-3-((3-(3-ethoxy-3-oxopropyl)-4-oxo-4,5,6,7-tetrahydro-1H-indol-2-yl)methylene)indolin-2-one]	–	-1	–	17.7	46.3	55.1	–	–
CCOC(=O)CCc1c(/C=C2\C(=O)Nc3ccc(S(=O)(=O)NC)cc32)[nH]c2c1C(=O)CCC2 [DCB-70064, (Z)-5-(N-methylsulfamoyl)-3-((3-(3-ethoxy-3-oxopropyl)-4-oxo-4,5,6,7-tetrahydro-1H-indol-2-yl)methylene)indolin-2-one]	–	22.2	313	78.6	39	25.7	–	–
CCOC(=O)CCc1c(/C=C2\C(=O)Nc3cc(-c4ccc(O)cc4)ccc32)[nH]c2c1C(=O)CCC2 [DCB-70066, (Z)-6-(4-hydroxyphenyl)-3-((3-(3-ethoxy-3-oxopropyl)-4-oxo-4,5,6,7-tetrahydro-1H-indol-2-yl)methylene)indolin-2-one]	–	25.3	–	40.1	94.3	38.6	–	–
CCOC(=O)CCc1c(/C=C2\C(=O)Nc3ccc(-c4ccc(OC)c(OC)c4)cc32)[nH]c2c1C(=O)CCC2 [DCB-70067, (Z)-5-(3,4-dimethoxyphenyl)-3-((3-(3-ethoxy-3-oxopropyl)-4-oxo-4,5,6,7-tetrahydro-1H-indol-2-yl)methylene)indolin-2-one]	–	-1.3	–	5.2	27.2	21.2	–	–
COc1ccc(-c2ccc3c(c2)/C(=C/c2[nH]c4c(c2CCC(=O)O)C(=O)CCC4)C(=O)N3)cc1OC [DCB-70068, (Z)-5-(3,4-dimethoxyphenyl)-3-((3-carboxyethyl-4-oxo-4,5,6,7-tetrahydro-1H-indol-2-yl)methylene)indolin-2-one]	–	5.1	560	54	48.4	15.6	–	–
